Measured values taken from PubChem BioAssay AID212 (DTP/NCI, 2004).
“And” between values parts separate entries of the source, which are not always exact repeats. Equal values may be shown once. Records with an inconclusive call do not appear.

Test system: BDF1 mice, colon carcinoma 38 sc, T/C %
Test: NCI In Vivo Anticancer Drug Screen. Data for tumor model Colon Carcinoma 38 (subcutaneous) in B6D2F1 (BDF1) mice
Conditions: endpoint: median tumor weight (est.), higher = larger tumour
Description: The antitumor activity of compounds was measured in mice bearing transplantable tumors. Survival or tumor size were measured and the results are expressed as the measurement made in the treated group (T) divided by the measurement made in the vehicle treated control group (C). The tumor model used in this assay is Colon Carcinoma 38 (subcutaneous) in B6D2F1 (BDF1) mice

[1] = dose: 25.0 mg/kg/injection, schedule: Q07DX002 (ip), vehicle: saline with Tween-80
[2] = dose: 50.0 mg/kg/injection, schedule: Q07DX002 (ip), vehicle: saline with Tween-80
[3] = dose: 12.5 mg/kg/injection, schedule: Q07DX002 (ip), vehicle: saline with Tween-80
[4] = dose: 100.0 mg/kg/injection, schedule: Q07DX002 (ip), vehicle: saline with Tween-80
[5] = dose: 50.0 mg/kg/injection, schedule: Q07DX002 (ip), vehicle: saline
[6] = dose: 100.0 mg/kg/injection, schedule: Q07DX002 (ip), vehicle: saline
[7] = dose: 200.0 mg/kg/injection, schedule: Q07DX002 (ip), vehicle: saline
[8] = dose: 400.0 mg/kg/injection, schedule: Q07DX002 (ip), vehicle: saline
[9] = dose: 800.0 mg/kg/injection, schedule: Q07DX002 (ip), vehicle: saline
[10] = dose: 200.0 mg/kg/injection, schedule: Q07DX002 (ip), vehicle: saline with Tween-80

SMILES: c1ccc2c(c1)-c1ccccc1C1NC21 (stereo not drawn)
- T/C (dose: 12.0 mg/kg/injection, schedule: Q07DX002 (ip), vehicle: saline with Tween-80): 104 % of control
- T/C [1]: 117 % of control
- T/C [2]: 93 % of control

SMILES: O=NN(CCCl)C(=O)NC1CCC(=O)NC1=O (stereo not drawn)
- T/C (dose: 2.0 mg/kg/injection, schedule: Q07DX003 (ip), vehicle: saline with Tween-80): 82 % of control
- T/C (dose: 4.0 mg/kg/injection, schedule: Q07DX003 (ip), vehicle: saline with Tween-80): 93 % of control
- T/C (dose: 8.0 mg/kg/injection, schedule: Q07DX003 (ip), vehicle: saline with Tween-80): 76 % of control
- T/C (dose: 13.0 mg/kg/injection, schedule: Q07DX003 (ip), vehicle: saline with Tween-80): 57 % of control
- T/C (dose: 20.0 mg/kg/injection, schedule: Q07DX003 (ip), vehicle: saline with Tween-80): 12 % of control

SMILES: O=c1nc(Oc2ccccc2)nc2ncccn12
- T/C [3]: 82 % of control
- T/C [1]: 94 % of control
- T/C [4]: 74 % of control

SMILES: C[Si](C)(C)O/C=C1/CCOC1=O
- T/C (dose: 25.0 mg/kg/injection, schedule: Q07DX002 (ip), vehicle: saline): 84 % of control
- T/C [5]: 86 % of control
- T/C [6]: 84 % of control
- T/C [7]: 95 % of control
- T/C [8]: 105 % of control
- T/C [9]: 78 % of control

SMILES: Nc1cccc(=O)[nH]1
- T/C (dose: 25.0 mg/kg/injection, schedule: Q07DX002 (ip), vehicle: suspension in saline): 116 % of control
- T/C [5]: 92 % of control
- T/C (dose: 50.0 mg/kg/injection, schedule: Q07DX002 (ip), vehicle: suspension in saline): 66 % of control
- T/C [6]: 113 % of control
- T/C (dose: 100.0 mg/kg/injection, schedule: Q07DX002 (ip), vehicle: suspension in saline): 87 % of control
- T/C [7]: 94 % of control
- T/C (dose: 200.0 mg/kg/injection, schedule: Q07DX002 (ip), vehicle: suspension in saline): 77 % of control
- T/C [8]: 91 % of control
- T/C (dose: 400.0 mg/kg/injection, schedule: Q07DX002 (ip), vehicle: suspension in saline): 74 % of control
- T/C [9]: 95 % of control

SMILES: CS(=O)(=O)c1ncc(Br)cn1
- T/C (dose: 6.25 mg/kg/injection, schedule: Q07DX002 (ip), vehicle: saline with Tween-80): 106 % of control
- T/C [3]: 76 % of control
- T/C [2]: 94 % of control
- T/C [4]: 113 % of control
- T/C [10]: 106 % of control

SMILES: CN(C)P(=O)(Oc1ccccc1)N(C)C
- T/C [2]: 68 % of control
- T/C [4]: 62 % of control
- T/C [10]: 86 % of control

SMILES: C(=N/NC1=NCCN1)/c1c2ccccc2c(/C=N\NC2=NCCN2)c2ccccc12
- T/C (dose: 5.0 mg/kg/injection, schedule: Q07DX002 (ip), vehicle: suspension in saline): 100 % of control
- T/C (dose: 10.0 mg/kg/injection, schedule: Q07DX002 (ip), vehicle: suspension in saline): 109 % of control
- T/C (dose: 20.0 mg/kg/injection, schedule: Q07DX002 (ip), vehicle: suspension in saline): 110 % of control
- T/C (dose: 40.0 mg/kg/injection, schedule: Q07DX002 (ip), vehicle: suspension in saline): 70 % of control

SMILES: C[C@H](CCC[C@H](C)OS(=O)(=O)c1ccccc1)OS(=O)(=O)c1ccccc1
- T/C [1]: 89 % of control and 91 % of control
- T/C [2]: 91 % of control and 98 % of control
- T/C [4]: 82 % of control
- T/C [10]: 120 % of control and 100 % of control
- T/C (dose: 400.0 mg/kg/injection, schedule: Q07DX002 (ip), vehicle: saline with Tween-80): 118 % of control
- T/C (dose: 800.0 mg/kg/injection, schedule: Q07DX002 (ip), vehicle: saline with Tween-80): 116 % of control

SMILES: O=[N+]([O-])c1ccc(Sc2ccncn2)c([N+](=O)[O-])c1
- T/C [3]: 51 % of control
- T/C [1]: 64 % of control and 74 % of control
- T/C [4]: 43 % of control and 44 % of control
